The values below come from ChEMBL document CHEMBL3425467, “Synthesis, cytotoxicity and haemolytic activity of Pulsatilla saponin A, D derivatives” (Bioorg Med Chem Lett, 2015).

Data set [1] relates to A549. The data set can be described thus: Cytotoxicity against human A549 cells assessed as inhibition of cell growth after 24 hrs by MTT assay. It is filed as functional, cell-based. To be noted: A549, 24 h. Background: Formazan colour is commonly taken as a measure of viable cells.
Data set [2] is described as follows: Hemolytic activity in rabbit RBC assessed as induction of hemolysis. The class given is cell-based, Oryctolagus cuniculus, Erythrocyte. Particulars: red blood cells, read-out: HD50 (the source's name).
Data set [3] can be described thus: Cytotoxicity against human HL7702 cells assessed as inhibition of cell growth after 24 hrs by MTT assay. It is filed as cell-based. Particulars: L02, 24 h.
The nature of data set [4]: Cytotoxicity against human Bel7402 cells assessed as inhibition of cell growth after 24 hrs by MTT assay. It is filed as functional, cell-based. To be noted: Bel-7402, 24 h.
Data set [5] concerns SMMC-7721. The data set can be described thus: Cytotoxicity against human SMMC7721 cells assessed as inhibition of cell growth after 24 hrs by MTT assay. It is filed as functional, cell-based. To be noted: SMMC-7721, 24 h.
The nature of data set [6]: Induction of hemolysis in erythrocytes (unknown origin). It is filed as cell-based, Erythrocyte. To be noted: read-out: HD50 (the source's name).
Data set [7] in a line: Ratio of hemolytic HD50 for PSD to hemolytic HD50 for compound in rabbit RBC. It is filed as ADME, cell-based, Oryctolagus cuniculus. Particulars: erythrocyte.
Data set [8] deals with Mus musculus. The data set can be described thus: Toxicity in mouse assessed as induction of induction of death at 0.1 mL/10 g, iv. The class given is organism-based. To be noted: in vivo.
Data set [9] in a line: Toxicity in iv dosed mouse assessed as tolerance dose. The class given is organism-based. Particulars: in vivo.
Data set [10] relates to Mus musculus. The data set can be described thus: Toxicity in mouse assessed as death time at 0.1 mL/10 g, iv. It is filed as organism-based. To be noted: in vivo.
Data set [11] concerns Mus musculus. Briefly: Toxicity in mouse assessed as induction of hematuria at 0.1 mL/10 g, iv. It is filed as organism-based. To be noted: in vivo.

Consider `C[C@@H]1O[C@@H](O[C@H]2[C@H](O[C@H]3CC[C@@]4(C)[C@@H](CC[C@]5(C)[C@@H]4CC=C4[C@@H]6CC(C)(C)CC[C@]6(C(=O)O)CC[C@]45C)[C@]3(C)CO)OC[C@H](O)[C@@H]2O)[C@H](O)[C@H](O)[C@H]1O` [ALPHA-HEDERIN], for which the half-inhibitory concentration (IC50) in data set [1] was determined as 15.3 µM; in [3], 11.5 µM; in data set [4] it was 13.2 µM; in [5] it was 10.8 µM. Besides, the HC50 amounted to 7.5 µM in [2] and 10 µM in data set [6].
In the case of `C[C@@H]1O[C@@H](O[C@H]2[C@H](O[C@H]3CC[C@@]4(C)[C@@H](CC[C@]5(C)[C@@H]4CC=C4[C@@H]6CC(C)(C)CC[C@]6(C(=O)N[C@H](CO)C(=O)O)CC[C@]45C)[C@]3(C)CO)OC[C@H](O[C@@H]3O[C@H](CO)[C@@H](O)[C@H](O)[C@H]3O)[C@@H]2O)[C@H](O)[C@H](O)[C@H]1O`, the Ratio in [7] is 20. Moreover, the IC50 in [1] is 72.3 µM; in data set [3], above 100 µM; in data set [4], 93.1 µM; in [5], above 100 µM. The HC50 in [2] is 60.3 µM.
As to `C[C@@H]1O[C@@H](O[C@H]2[C@H](O[C@H]3CC[C@@]4(C)[C@@H](CC[C@]5(C)[C@@H]4CC=C4[C@@H]6CC(C)(C)CC[C@]6(C(=O)NCC(=O)O)CC[C@]45C)[C@]3(C)CO)OC[C@H](O[C@@H]3O[C@H](CO)[C@@H](O)[C@H](O)[C@H]3O)[C@@H]2O)[C@H](O)[C@H](O)[C@H]1O`, in data set [7], the Ratio is reported as 20. Moreover, the concentration for half-maximal inhibition (IC50) in data set [1] worked out at 5.7 µM; in data set [3] it was 1.5 µM; in data set [4], 4.3 µM; in data set [5], 1.6 µM. Moreover, the HC50 in [2] stood at 160 µM.
With `C[C@@H]1O[C@@H](O[C@H]2[C@H](O[C@H]3CC[C@@]4(C)[C@@H](CC[C@]5(C)[C@@H]4CC=C4[C@@H]6CC(C)(C)CC[C@]6(C(=O)N6CCN(CCC(=O)O)CC6)CC[C@]45C)[C@]3(C)CO)OC[C@H](O[C@@H]3O[C@H](CO)[C@@H](O)[C@H](O)[C@H]3O)[C@@H]2O)[C@H](O)[C@H](O)[C@H]1O`, the Ratio in data set [7] is recorded as 20. Also, the 50% inhibitory concentration (IC50) is 1.9 µM in data set [1], 1.3 µM in [3], 9.8 µM in [4] and 14.5 µM in [5]. Besides, the HC50 in [2] came out at 119 µM.
As to `C[C@@H]1O[C@@H](O[C@H]2[C@H](O[C@H]3CC[C@@]4(C)[C@@H](CC[C@]5(C)[C@@H]4CC=C4[C@@H]6CC(C)(C)CC[C@]6(C(=O)N6CCC[C@H]6C(=O)O)CC[C@]45C)[C@]3(C)CO)OC[C@H](O[C@@H]3O[C@H](CO)[C@@H](O)[C@H](O)[C@H]3O)[C@@H]2O)[C@H](O)[C@H](O)[C@H]1O`, the Ratio in [7] was determined as 20. Also, the IC50 in [1] is 71.1 µM; in data set [3], above 100 µM; in data set [4] it was 97.8 µM; in data set [5] it was 46.8 µM. For the same compound, the HC50 in data set [2] worked out at 326 µM.
With `C[C@@H]1O[C@@H](O[C@H]2[C@H](O[C@H]3CC[C@@]4(C)[C@@H](CC[C@]5(C)[C@@H]4CC=C4[C@@H]6CC(C)(C)CC[C@]6(C(=O)O)CC[C@]45C)[C@]3(C)CO)OC[C@H](O[C@@H]3O[C@H](CO)[C@@H](O)[C@H](O)[C@H]3O)[C@@H]2O)[C@H](O)[C@H](O)[C@H]1O` [HEDERACOLCHISIDE A], the IC50 in [1] came to 6.3 µM; in data set [3], 12.6 µM; in data set [4], 8.9 µM; in data set [5], 7.6 µM. The HC50 in data set [2] came out at 6.3 µM; in data set [6], 22 µM.
On to `C[C@@H]1O[C@@H](O[C@H]2[C@H](O[C@H]3CC[C@@]4(C)[C@@H](CC[C@]5(C)[C@@H]4CC=C4[C@@H]6CC(C)(C)CC[C@]6(C(=O)NCC(=O)[O-])CC[C@]45C)[C@]3(C)CO)OC[C@H](O[C@@H]3O[C@H](CO)[C@@H](O)[C@H](O)[C@H]3O)[C@@H]2O)[C@H](O)[C@H](O)[C@H]1O.[Na+]`, for which the Activity entry in data set [8] and in [11] was “Non-toxic” each time. Moreover, the MTD in [9] was above 160 mg/kg. In [10], the Time was above 14 days.
In the case of `C[C@@H]1O[C@@H](O[C@H]2[C@H](O[C@H]3CC[C@@]4(C)[C@@H](CC[C@]5(C)[C@@H]4CC=C4[C@@H]6CC(C)(C)CC[C@]6(C(=O)[O-])CC[C@]45C)[C@]3(C)CO)OC[C@H](O)[C@@H]2O)[C@H](O)[C@H](O)[C@H]1O.[Na+]`, the Activity entry in data set [8] and in data set [11] was “Toxic” in each case. Also, in data set [9], the MTD was determined as 10 mg/kg. Besides, in data set [10], the Time was below 0.0417 days.

As a reminder, the IC50 is the concentration at which inhibition is half-maximal. Broadly, the MTD is the highest dose tested that stayed within the study's limit of toxicity.
